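All cell lines were grown in 96-well plates and treated with compound for 48 hours. GI50 = concentration required for 50% inhibition of growth. TGI: concentration producing complete growth inhibition.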
Key:
Assay in all cases: NCI-60 cell line screen, 48 h
HOP-62 NSCLC = test system: HOP-62 NSCLC
MOLT-4 leukemia = test system: MOLT-4 leukemia
COLO 205 colon = test system: COLO 205 colon
NCI-H460 lung = test system: NCI-H460 lung
HT29 colon = test system: HT29 colon
LOX IMVI melanoma = test system: LOX IMVI melanoma
T-47D breast = test system: T-47D breast
UACC-257 melanoma = test system: UACC-257 melanoma
IGROV1 ovarian = test system: IGROV1 ovarian
RXF 393 renal = test system: RXF 393 renal

SMILES	TGI (HOP-62 NSCLC)	TGI (MOLT-4 leukemia)	TGI (COLO 205 colon)	TGI (NCI-H460 lung)	TGI (HT29 colon)	GI50 (LOX IMVI melanoma)	TGI (LOX IMVI melanoma)	GI50 (HOP-62 NSCLC)	GI50 (MOLT-4 leukemia)	GI50 (COLO 205 colon)	GI50 (NCI-H460 lung)	GI50 (T-47D breast)	TGI (T-47D breast)	GI50 (UACC-257 melanoma)	TGI (UACC-257 melanoma)	GI50 (IGROV1 ovarian)	TGI (IGROV1 ovarian)	GI50 (HT29 colon)	TGI (RXF 393 renal)	GI50 (RXF 393 renal)
O=C(O)Cn1c(=O)[nH]c(=O)c2c1ncn2Cc1ccccc1	> 100 µM	> 100 µM	> 100 µM	> 100 µM	> 100 µM															
COc1ccc(-c2cc(-c3cc(OC)c(OC)c(OC)c3)c(C#N)c(N3CCOCC3)n2)cc1O	> 100 µM	> 100 µM	> 100 µM	> 96.1 µM	> 100 µM	0.238 µM	11.7 µM	33.2 µM	4.36 µM	21.5 µM	1.07 µM	25.4 µM	> 100 µM	38.4 µM	> 100 µM	19 µM	> 100 µM	10.3 µM		
Cc1ccc(C)c(NC(=O)CCc2nc(=S)[nH][nH]2)c1	> 100 µM	> 100 µM	> 100 µM	> 100 µM	> 100 µM		> 100 µM								> 100 µM		> 100 µM		> 100 µM	
O=C(CC(=O)C1CCOC1=O)C(=O)Nc1ccc(Cl)cc1Cl (centres undefined)	> 100 µM		> 100 µM	> 100 µM	> 100 µM		> 100 µM								> 100 µM		> 100 µM		> 100 µM	
CCC(C(=O)[O-])C(=O)[O-].CCC(C(=O)[O-])C(=O)[O-].N.N.NCCCCCCN.[Pt+4].[Pt+4]	50 µM	2.94 µM	1.66 µM	18.7 µM	19.4 µM	10.1 µM	20.6 µM	20.4 µM	1.18 µM	0.883 µM	7.99 µM			6.14 µM	14 µM	8.13 µM	18.7 µM	9.01 µM	10.1 µM	4.49 µM
COc1ccc(-c2c(-c3cc(OC)c4c(c3)OCO4)noc2N)cc1	37.1 µM	17.5 µM	0.122 µM	10.9 µM	1.63 µM	0.0629 µM	> 51.5 µM	0.0345 µM	0.0723 µM	0.0347 µM	0.0339 µM	0.0422 µM	47.1 µM			0.093 µM	> 100 µM	0.0353 µM	0.0627 µM	0.0167 µM
COc1ccc(CNc2nc3c(NC(C)=O)cc(C(F)(F)F)cc3nc2-c2ccccc2)cc1OC	> 100 µM	> 100 µM	> 100 µM	> 100 µM	> 100 µM		> 100 µM								> 100 µM		> 100 µM			
CC(=O)OC1CC2C(C)(C)C(=O)C=CC2(C)C2CCC3(C)C(c4ccoc4)OC(=O)C4OC43C12C (centres undefined)	87 µM	76.4 µM	21.7 µM	16.1 µM	39 µM								> 100 µM		> 100 µM		> 100 µM		27.2 µM	
O=C1C(Cl)=C(Nc2cccc(O)c2)C(=O)N1c1ccccc1Cl	> 100 µM	38.1 µM	> 100 µM	> 100 µM	89.2 µM	20.1 µM	52.6 µM	32.9 µM	15.8 µM	30.3 µM	41.2 µM	32.3 µM	> 100 µM					24.6 µM	41.2 µM	7.87 µM
